The text below walks through data of paper PMC8338929, “Acetylation turns leucine into a drug by membrane transporter switching” (Scientific Reports, 2021).

Assay [1] concerns the target T1, human LAT1 (SLC7A5) (Homo sapiens, UniProt Q01650).
T1 construct: host or cells: MDCK-II
Nature of the assay: Inhibition of LAT1 uptake of probe substrate gabapentin in MDCK-II cells. The assay is classed as cell-based. Conditions: probe gabapentin 10 µM; positive control JPH203 10 µM. On the procedure: Transport studies with human PepT1 (SLC15A1), LAT1 (SLC7A5) and MCT1 (SLC16A1) were conducted in MDCK-II cells expressing the human transporter or control cells expressing a vector with Green Fluorescence Protein. Cells were transfected using a proprietary, transient transfection system (OPTI-EXPRESSION Technology, BioIVT). The results from the control cells were used to correct for substrate permeation by routes other than the transporter being investigated in the study. […] Specifically, Net Transporter Mediated Substrate Uptake (pmol/min/cm^2) = (Cellular accumulation in the presence of the transporter) − (Mean cellular accumulation in the absence of the transporter). MDCK-II cells were maintained in DMEM with low glucose and 10% FBS. Cells were used at passages up to 40 were seeded at 60,000 ± 10,000 cells/well on 96-well plates approximately 24 h before transfection, and transport assays were performed approximately 48 h after transfection. […]
Transport studies with PepT1 were conducted in 96-well cell culture plate with wells containing a monolayer of MDCK-II cells grown on a permeable support and a corresponding 96-well receiver tray. […] Then a 30-µL sample was taken and mixed with 200 µL of scintillation fluid and scintillation counted (1450 Microbeta, Perkin-Elmer). […]

For assay [2], the target named is T2, Human OAT1 (SLC22A6) (Homo sapiens, UniProt Q4U2R8).
T2 construct: host or cells: HEK-293
T2 sequence (Q4U2R8 1-563): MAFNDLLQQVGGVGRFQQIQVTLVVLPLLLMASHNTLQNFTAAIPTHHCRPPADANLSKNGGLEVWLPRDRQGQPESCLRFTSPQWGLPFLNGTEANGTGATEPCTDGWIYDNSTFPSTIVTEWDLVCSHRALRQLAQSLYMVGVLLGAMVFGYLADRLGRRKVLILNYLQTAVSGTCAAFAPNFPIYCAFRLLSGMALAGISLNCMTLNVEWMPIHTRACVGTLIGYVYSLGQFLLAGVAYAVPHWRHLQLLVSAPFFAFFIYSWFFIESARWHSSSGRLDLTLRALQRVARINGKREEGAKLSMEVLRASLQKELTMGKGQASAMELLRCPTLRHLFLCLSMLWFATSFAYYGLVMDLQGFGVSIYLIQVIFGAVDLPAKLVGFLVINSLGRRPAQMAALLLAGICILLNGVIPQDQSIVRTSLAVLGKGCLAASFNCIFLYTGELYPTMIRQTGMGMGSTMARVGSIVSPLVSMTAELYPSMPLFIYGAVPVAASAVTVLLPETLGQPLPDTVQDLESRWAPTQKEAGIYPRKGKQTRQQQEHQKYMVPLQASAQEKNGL
Briefly: Inhibition of OAT1 uptake of probe substrate chlorothiazide in HEK-293 cells. Format: cell-based. Conditions: probe chlorothiazide 3 µM; positive control diclofenac 100 µM. The method, then: Cells were grown in DMEM (Gibco 4196, high glucose, without sodium pyruvate) supplemented with MEM non-essential amino acids and 10% fetal bovine serum. Cells were re-fed with fresh medium after attachment (4–6 h post-seeding). Cell were plated at a density of 4 × 10^5/well in 24-well plates coated with poly-D-lysine. Transporter assays were conducted in 400 µL of HBSS supplemented with 10 mM Hepes, pH 7.4
The known probe substrates used as positive controls were 3 μM chlorothiazide for OAT1, 2 μM estrone-3-sulfate for OAT3, 10 µM [^3H]gabapentin for LAT1, 50 µM [^3H]Gly-Sar for PepT1, 500 µM thiophene-2-glyoxylic acid for MCT1. The known inhibitors used as controls for each transporter were 100 μM diclofenac for OAT1 and OAT3, 10 µM JPH203 for LAT1 and 200 µM losartan for PepT1. All incubations were in triplicate and contained 1% (OAT1 and OAT3) or 0.5% DMSO (LAT, PepT1 and MCT1). […]
[I] is the inhibitor concentration and IC50 is the inhibitor concentration where the remaining activity is at the midpoint between the Top and Bottom. […] In inhibition experiments, the IC50 is not equivalent to affinity because it is dependent on the concentrations of the substrate, the inhibitor and affinity; therefore, we assumed competitive inhibition, and calculated affinity of inhibition (Ki) with the Cheng-Prusoff equation[49].

T1 sequence (Q01650 whole entry): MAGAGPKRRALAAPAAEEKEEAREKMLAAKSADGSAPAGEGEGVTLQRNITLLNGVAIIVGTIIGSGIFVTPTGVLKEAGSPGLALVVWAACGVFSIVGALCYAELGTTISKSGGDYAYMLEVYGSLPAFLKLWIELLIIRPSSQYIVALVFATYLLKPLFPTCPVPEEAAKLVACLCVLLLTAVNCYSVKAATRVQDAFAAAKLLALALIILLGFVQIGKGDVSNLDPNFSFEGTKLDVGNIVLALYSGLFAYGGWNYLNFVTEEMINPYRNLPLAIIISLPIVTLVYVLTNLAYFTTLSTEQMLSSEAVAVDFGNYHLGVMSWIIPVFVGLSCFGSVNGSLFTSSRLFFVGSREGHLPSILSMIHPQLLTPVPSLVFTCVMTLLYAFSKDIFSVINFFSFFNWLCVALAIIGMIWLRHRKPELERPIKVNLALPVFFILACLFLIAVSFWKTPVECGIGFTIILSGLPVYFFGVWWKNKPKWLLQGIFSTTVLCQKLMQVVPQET
T1 sequence (P08195 102-630 partner): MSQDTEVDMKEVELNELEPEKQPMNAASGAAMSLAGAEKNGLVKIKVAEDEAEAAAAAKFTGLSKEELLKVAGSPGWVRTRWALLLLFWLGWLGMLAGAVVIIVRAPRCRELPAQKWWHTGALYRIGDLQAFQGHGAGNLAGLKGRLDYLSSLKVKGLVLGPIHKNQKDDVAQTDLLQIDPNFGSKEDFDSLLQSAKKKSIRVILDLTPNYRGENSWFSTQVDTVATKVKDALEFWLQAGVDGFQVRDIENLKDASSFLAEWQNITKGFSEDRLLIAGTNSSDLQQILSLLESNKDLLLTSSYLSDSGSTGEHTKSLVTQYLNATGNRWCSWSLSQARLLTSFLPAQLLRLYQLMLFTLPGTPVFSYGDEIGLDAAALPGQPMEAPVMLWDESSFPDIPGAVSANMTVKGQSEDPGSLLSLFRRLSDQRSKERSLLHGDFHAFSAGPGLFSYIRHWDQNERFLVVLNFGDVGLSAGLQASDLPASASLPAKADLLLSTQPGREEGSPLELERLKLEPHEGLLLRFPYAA

The term IC50 denotes the midpoint of a concentration-inhibition curve. Lower therefore signals inhibition by little substance. As for `CC(=O)N[C@@H](CC(C)C)C(=O)O` [N-acetyl-L-leucine], the “inhibitor of LAT1” value in assay [1] was “nor an inhibitor”. The compound further gave an IC50 in assay [2] of 6.2 mM.
